Laboratory results published in publication PMC12090182, “Repurposing of the RIPK1-Selective Benzo[1,4]oxazepin-4-one Scaffold for the Development of a Type III LIMK1/2 Inhibitor” (ACS Chemical Biology, 2025).
Like-named read-outs stand apart in the source and are kept apart here.

System: U2OS cells
Format: cell-based
Details: U2OS; for Cell count normalized to cells treated with DMSO control / Cell count per well / Population Fragmented Nuclei (%) / Population Healthy Nuclei (%) / Population Pyknosed Nuclei (%) / Population apoptotic cell (%) / Population cell that influence microtubule strucutre (%) / Population with increased mitochondrial mass (%) / Population with membrane disruption (%): 10 µM
Protocol: To assess the influence on cell health, a high-content screening in living cells called the multiplex high-content assay, as described previously by Tjaden et al., was performed.[38] In brief, HEK293T (ATCC CRL-1573) and U2OS (ATCCHTB-96) were cultured in DMEM plus L-glutamine (high glucose) supplemented by 10% FBS (Gibco) and penicillin/streptomycin (Gibco). MRC-9 fibroblasts ([…]) were cultured in EMEM plus L-glutamine supplemented by 10% FBS (Gibco) and penicillin/streptomycin (Gibco). Cells were seeded at a density of 1250 cells per well in a 384-well plate in a culture medium (cell culture microplate, PS, f-bottom, μClear, 781091, Greiner), with a volume of 50 μL per well. All outer wells were filled with 100 μL of PBS buffer (Gibco). […] The cell shape and fluorescence were measured before treatment and 12, 24, and 48 h after compound treatment using the CQ1 high-content confocal microscope (Yokogawa, Musashino, Japan). […] The compounds were tested at 1 and 10 μM, respectively. Acquired images of the cells were processed using Yokogawa CellPathfinder software (v3.04.02.02). […] Results were normalized to cells exposed to 0.1% DMSO. All compounds were tested in biological duplicates, and SEM (standard error of mean) was calculated of biological duplicates.

CN1C(=O)[C@@H](N2CCc3c(nn(Cc4ccccc4)c3C(N)=O)C2=O)COc2cc(Cl)ccc21 [Compound 10, (S)-2-benzyl-6-(8-chloro-5-methyl-4-oxo-2,3,4,5-tetrahydrobenzo[b][1,4]oxazepin-3-yl)-7-oxo-4,5,6,7-tetrahydro-2H-pyrazolo[3,4-c]pyridine-3-carboxamide]
Cell count normalized to cells treated with DMSO control (0 h, replicate 1): 1.1102
Cell count per well (0 h, replicate 1): 231
Population Fragmented Nuclei (%) (0 h, replicate 1): 38.84%
Population Healthy Nuclei (%) (0 h, replicate 1): 51.34%
Population Pyknosed Nuclei (%) (0 h, replicate 1): 9.82%
Population apoptotic cell (%) (0 h, replicate 1): 95.45%
Population cell that influence microtubule strucutre (%) (0 h, replicate 1): 3.48%
Population with increased mitochondrial mass (%) (0 h, replicate 1): 3.48%
Population with membrane disruption (%) (0 h, replicate 1): 6.09%
Cell count normalized to cells treated with DMSO control (0 h, replicate 2): 1.062
Cell count per well (0 h, replicate 2): 91
Population Fragmented Nuclei (%) (0 h, replicate 2): 26.19%
Population Healthy Nuclei (%) (0 h, replicate 2): 64.29%
Population Pyknosed Nuclei (%) (0 h, replicate 2): 9.52%
Population apoptotic cell (%) (0 h, replicate 2): 100.00%
Population cell that influence microtubule strucutre (%) (0 h, replicate 2): 3.70%
Population with increased mitochondrial mass (%) (0 h, replicate 2): 3.70%
Population with membrane disruption (%) (0 h, replicate 2): 7.41%
Cell count normalized to cells treated with DMSO control (12 h, replicate 1): 1.017
Cell count per well (12 h, replicate 1): 269
Population Fragmented Nuclei (%) (12 h, replicate 1): 26.62%
Population Healthy Nuclei (%) (12 h, replicate 1): 63.50%
Population Pyknosed Nuclei (%) (12 h, replicate 1): 9.89%
Population apoptotic cell (%) (12 h, replicate 1): 73.08%
Population cell that influence microtubule strucutre (%) (12 h, replicate 1): 4.19%
Population with increased mitochondrial mass (%) (12 h, replicate 1): 6.59%
Population with membrane disruption (%) (12 h, replicate 1): 8.38%
Cell count normalized to cells treated with DMSO control (12 h, replicate 2): 0.9722
Cell count per well (12 h, replicate 2): 115
Population Fragmented Nuclei (%) (12 h, replicate 2): 22.52%
Population Healthy Nuclei (%) (12 h, replicate 2): 63.96%
Population Pyknosed Nuclei (%) (12 h, replicate 2): 13.51%
Population apoptotic cell (%) (12 h, replicate 2): 100.00%
Population cell that influence microtubule strucutre (%) (12 h, replicate 2): 7.04%
Population with increased mitochondrial mass (%) (12 h, replicate 2): 9.86%
Population with membrane disruption (%) (12 h, replicate 2): 7.04%
Cell count normalized to cells treated with DMSO control (24 h, replicate 1): 0.9881
Cell count per well (24 h, replicate 1): 308
Population Fragmented Nuclei (%) (24 h, replicate 1): 23.59%
Population Healthy Nuclei (%) (24 h, replicate 1): 66.78%
Population Pyknosed Nuclei (%) (24 h, replicate 1): 9.63%
Population apoptotic cell (%) (24 h, replicate 1): 96.55%
Population cell that influence microtubule strucutre (%) (24 h, replicate 1): 6.97%
Population with increased mitochondrial mass (%) (24 h, replicate 1): 4.98%
Population with membrane disruption (%) (24 h, replicate 1): 5.97%
Cell count normalized to cells treated with DMSO control (24 h, replicate 2): 0.886
Cell count per well (24 h, replicate 2): 126
Population Fragmented Nuclei (%) (24 h, replicate 2): 18.18%
Population Healthy Nuclei (%) (24 h, replicate 2): 71.90%
Population Pyknosed Nuclei (%) (24 h, replicate 2): 9.92%
Population apoptotic cell (%) (24 h, replicate 2): 100.00%
Population cell that influence microtubule strucutre (%) (24 h, replicate 2): 6.90%
Population with increased mitochondrial mass (%) (24 h, replicate 2): 6.90%
Population with membrane disruption (%) (24 h, replicate 2): 10.34%
Cell count normalized to cells treated with DMSO control (48 h, replicate 1): 0.9437
Cell count per well (48 h, replicate 1): 420
Population Fragmented Nuclei (%) (48 h, replicate 1): 19.22%
Population Healthy Nuclei (%) (48 h, replicate 1): 67.40%
Population Pyknosed Nuclei (%) (48 h, replicate 1): 13.38%
Population apoptotic cell (%) (48 h, replicate 1): 90.91%
Population cell that influence microtubule strucutre (%) (48 h, replicate 1): 3.61%
Population with increased mitochondrial mass (%) (48 h, replicate 1): 3.97%
Population with membrane disruption (%) (48 h, replicate 1): 5.78%
Cell count normalized to cells treated with DMSO control (48 h, replicate 2): 0.7019
Cell count per well (48 h, replicate 2): 145
Population Fragmented Nuclei (%) (48 h, replicate 2): 21.28%
Population Healthy Nuclei (%) (48 h, replicate 2): 65.96%
Population Pyknosed Nuclei (%) (48 h, replicate 2): 12.77%
Population apoptotic cell (%) (48 h, replicate 2): 83.33%
Population cell that influence microtubule strucutre (%) (48 h, replicate 2): 7.53%
Population with increased mitochondrial mass (%) (48 h, replicate 2): 7.53%
Population with membrane disruption (%) (48 h, replicate 2): 15.05%
impact on tubulin, mitochondrial mass, and cellular permeability in healthy cells (1 μM (Figure 6)): comparable to that of the 0.1% DMSO control
